# Values of other authors as cited in paper PMC2912446 (ACS chemical biology, 2010).
# Tested on: GPR30
# Conditions: read-out: GPR30 binding affinity; parent small molecules
row,Compound,IC50 [nM]
2,CC(=O)c1ccc2c(c1)[C@@H]1C=CC[C@@H]1[C@H](c1cc3c(cc1Br)OCO3)N2 [G-1],~11
